PubChem BioAssay (NCI)
“And” between values parts separate entries of the source, which are not always exact repeats. Equal values may be shown once.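 Exposure lasted 48 hours, with cells grown in 96-well plates and compounds tested at five concentrations. The concentration for 50% growth inhibition is given as GI50. TGI: total growth inhibition.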

What was measured:
Test in all cases: NCI tumour cell line growth inhibition, 48 h
NCI-H23 lung = tested on: NCI-H23 lung
SR leukemia = tested on: SR leukemia
LOX IMVI melanoma = tested on: LOX IMVI melanoma
SNB-19 CNS = tested on: SNB-19 CNS
A549 NSCLC = tested on: A549 NSCLC
K-562 leukemia = tested on: K-562 leukemia
HOP-62 NSCLC = tested on: HOP-62 NSCLC
HCC-2998 colon = tested on: HCC-2998 colon
MOLT-4 leukemia = tested on: MOLT-4 leukemia
T-47D breast = tested on: T-47D breast

SMILES	GI50 (NCI-H23 lung)	TGI (NCI-H23 lung)	GI50 (SR leukemia)	TGI (SR leukemia)	GI50 (LOX IMVI melanoma)	TGI (LOX IMVI melanoma)	GI50 (SNB-19 CNS)	TGI (SNB-19 CNS)	GI50 (A549 NSCLC)	TGI (A549 NSCLC)	GI50 (K-562 leukemia)	TGI (K-562 leukemia)	GI50 (HOP-62 NSCLC)	TGI (HOP-62 NSCLC)	GI50 (HCC-2998 colon)	TGI (HCC-2998 colon)	GI50 (MOLT-4 leukemia)	TGI (MOLT-4 leukemia)	GI50 (T-47D breast)	TGI (T-47D breast)
O=C1NOC(c2ccc(O)cc2)(c2ccc(O)cc2)c2ccccc21	> 100 µM	> 100 µM	> 100 µM	> 100 µM	> 100 µM	> 100 µM	> 100 µM	> 100 µM	> 100 µM	> 100 µM	> 100 µM	> 100 µM	> 100 µM	> 100 µM	> 100 µM	> 100 µM	> 100 µM	> 100 µM	> 100 µM	> 100 µM
Cc1[nH]c2ccc(F)cc2c1-c1nc2c3cccnc3c3ncccc3c2[nH]1	0.418 µM	> 100 µM	0.134 µM	> 100 µM	–	–	0.384 µM	> 100 µM	0.701 µM	> 100 µM	0.353 µM	> 100 µM	0.305 µM	> 100 µM	0.321 µM	> 100 µM	0.298 µM	> 100 µM	0.357 µM	> 100 µM
COc1ccc(C(=O)/C=C/c2cccc(Nc3ccnc4cc(Cl)ccc34)c2)cc1	1.49 µM	> 100 µM	0.491 µM	3.77 µM	1.58 µM	11.7 µM	2.26 µM	> 100 µM	2.78 µM	> 100 µM	1.64 µM	18.1 µM	1.44 µM	3.99 µM	–	–	2.9 µM	> 100 µM	0.655 µM	4.64 µM
COc1ccc(Cl)c(Nc2nc3ccccc3nc2NS(=O)(=O)c2cccc(NC(=O)C(C)(C)N)c2)c1	13.2 µM and > 10 µM	29.1 µM and > 10 µM	10.2 µM and > 10 µM	28.1 µM and > 10 µM	6.52 µM and 4.14 µM	20.2 µM and > 10 µM	12.4 µM and > 10 µM	25.9 µM and > 10 µM	7.7 µM and > 10 µM	21.4 µM and > 10 µM	14.9 µM and > 10 µM	32.6 µM and > 10 µM	4.66 µM and > 10 µM	20 µM and > 10 µM	13 µM and 5.73 µM	26.6 µM and > 10 µM	3.5 µM and 3.66 µM	17.4 µM and > 10 µM	0.443 µM and 0.638 µM	5.05 µM and 5.77 µM
C=C1CC[C@@H]2[C@](C)(COC(C)=O)[C@H](OC(C)=O)CC[C@@]2(C)[C@@H]1CC(Nc1ccc(S(=O)(=O)Nc2ccc(Cl)nn2)cc1)C1=CCOC1=O (some centres not stated)	2.06 µM	5.35 µM	1.35 µM	8.1 µM	0.295 µM	1.19 µM	1.91 µM	3.91 µM	2.96 µM	10.7 µM	0.526 µM	5.19 µM	1.46 µM	2.99 µM	1.84 µM	3.86 µM	1.96 µM	> 100 µM	1.51 µM	4.25 µM
CCC[CH2][Sn]1([CH2]CCC)[O]C2C(CO)OC(n3ccc(N)nc3=O)C2[O]1 (configuration not stated)	1.35 µM	3.08 µM	0.549 µM	> 100 µM	0.384 µM	1.65 µM	1.55 µM	2.93 µM	2.38 µM	4.73 µM	0.297 µM	> 100 µM	2.24 µM	3.99 µM	1.66 µM	3.2 µM	1.64 µM	> 100 µM	0.383 µM	2.49 µM
Nc1ncnc2c1c(-c1ccc(Oc3ccccc3)cc1)nn2C[C@@H]1SSC[C@H]1O	0.916 µM	8.17 µM	0.163 µM	11.8 µM	0.272 µM	1.74 µM	2.88 µM	13.3 µM	1.86 µM	4.69 µM	0.501 µM	15.5 µM	0.797 µM	6.74 µM	4.34 µM	23.5 µM	–	–	1.09 µM	10.3 µM
CCOC(=O)C1CCCCN1C(=O)c1ccc(Nc2cnc3cc(C(F)(F)F)ccc3n2)cc1 (configuration not stated)	14.7 µM	28.6 µM	3.8 µM	19.1 µM	3.62 µM	16.4 µM	21.3 µM	64.1 µM	15 µM	44.2 µM	15.1 µM	> 100 µM	17.6 µM	32.5 µM	–	–	3.93 µM	> 100 µM	6.91 µM	> 100 µM
Cc1nn(-c2ccc([N+](=O)[O-])cc2)c2ncnc(N/N=C/c3ccccc3O)c12	0.864 µM	3.76 µM	0.166 µM	–	0.22 µM	1.47 µM	0.507 µM	8.65 µM	0.563 µM	5.41 µM	0.448 µM	> 100 µM	0.397 µM	3.29 µM	–	–	0.321 µM	> 100 µM	0.542 µM	4.95 µM
O=[N+]([O-])c1ccc(N2CCC(CCCC3CCN(c4ccc([N+](=O)[O-])cc4[N+](=O)[O-])CC3)CC2)c([N+](=O)[O-])c1	–	54.3 µM	–	74.7 µM	–	30.2 µM	–	34.8 µM	–	31.8 µM	–	55.9 µM	–	29.5 µM	–	–	–	53.2 µM	–	29.2 µM
Cc1nn(-c2ccc(Cl)cc2)c2nc3c(nc12)C(=O)C(=O)c1ccccc1-3	1.71 µM	3.88 µM	7.28 µM	> 100 µM	2.08 µM	5.89 µM	2.48 µM	8.17 µM	2.06 µM	4.08 µM	–	–	9.71 µM	30.4 µM	1.74 µM	3.79 µM	> 100 µM	> 100 µM	12.1 µM	29.9 µM
CCSc1nc(SCC)c2c(-c3ccc(OC)c(OC)c3)c(C#N)c(SCC)nc2n1	14.9 µM	53.1 µM	26.5 µM	> 100 µM	22.9 µM	60.1 µM	47.7 µM	> 100 µM	30.4 µM	79.1 µM	85.1 µM	> 100 µM	22.6 µM	63.2 µM	21 µM	49.2 µM	68.5 µM	> 100 µM	–	–
C[C@]12CC[C@@H]3c4ccc(O)cc4CC[C@H]3[C@@H]1Cc1cnc(N)nc12	18.1 µM	41 µM	7.06 µM	39.2 µM	17.4 µM	31.3 µM	14.4 µM	43 µM	44 µM	> 100 µM	7.97 µM	42.6 µM	25.5 µM	59.1 µM	9.36 µM	26.1 µM	13 µM	41.1 µM	–	–
